Source: patent US20170037086A1, “PEPTIDOMIMETIC MACROCYCLES WITH PTH ACTIVITY” (AILERON THERAPEUTICS, INC., priority 2014, published 2017)
Where “and” joins values, the source holds several entries; their conditions need not be identical. Identical values can stand only once. Blank lines part the entries; values can stand above or below the molecule they belong to. Positions of bridges follow the written chain, without caps; N, C: chain ends. Non-standard residues stand in square brackets, D forms with d. hArg = N=C(N)NCCCC[C@H](N)C(=O)O; S5 = C=CCCC[C@](C)(N)C(=O)O

Columns and labels:
[1] = target: PTH receptor type 2 (UniProt P49190 25-550, limits assumed); experiment: cell-based or functional assay
Chain of PTH receptor type 2 (P49190 25-550 limits assumed): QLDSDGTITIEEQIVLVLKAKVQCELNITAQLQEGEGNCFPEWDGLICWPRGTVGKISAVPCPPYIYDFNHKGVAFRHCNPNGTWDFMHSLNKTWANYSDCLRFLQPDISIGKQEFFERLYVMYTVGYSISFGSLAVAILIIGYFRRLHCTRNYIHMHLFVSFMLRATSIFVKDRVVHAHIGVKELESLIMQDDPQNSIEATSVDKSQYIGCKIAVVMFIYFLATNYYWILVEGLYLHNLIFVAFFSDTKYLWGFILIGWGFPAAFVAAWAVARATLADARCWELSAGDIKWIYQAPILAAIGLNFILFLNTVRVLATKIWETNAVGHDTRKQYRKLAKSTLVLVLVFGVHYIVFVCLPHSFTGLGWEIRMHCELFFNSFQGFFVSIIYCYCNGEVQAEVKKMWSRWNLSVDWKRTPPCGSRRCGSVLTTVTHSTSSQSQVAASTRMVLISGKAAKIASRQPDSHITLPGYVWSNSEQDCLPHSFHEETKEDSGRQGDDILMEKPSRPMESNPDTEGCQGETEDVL

[2] = system: PTH (1-34) induced hypercalcemia; experiment: TPTx rat model of PTH (1-34) induced hypercalcemia; assay type: in vivo; details: for Ionized calcium, Avg. / Total calcium, Avg. / Ionized calcium, individual animals / Total calcium, individual animals: Group 2 Vehicle/PTH; for Ionized calcium, Avg. / Total calcium, Avg.: TPTx rats, PTH 1.25 μg/kg/h IV infusion
Experimental: PTH Antagonist in a TPTx Rat Model of PTH (1-34) Induced Hypercalcemia
Experiments were conducted assess the effect of a PTH antagonist SP#63 in a thyroparathyroidectomized (TPTx) rat model of PTH (1-34) induced hypercalcemia. Thyroid hormone was given as supportive therapy prior to start of PTH infusion.
SP#63 or the vehicle for SP#63 was administered as an intravenous (IV) bolus in PTH infused thyroparathyroidectomized (TPTx) Sprague-Dawley rats. SP#63 was administered at 0.925 mg/kg and 1.850 mg/kg, 1 to 3 min before the initiation of the IV infusion. PTH (administered at 1.25 μg/kg/h) or the vehicle for PTH were infused via a femoral catheter over a period of 6 hours at a rate of 1 mL/kg/h. Total and ionized calcium were measured from blood samples collected at 0, 2, 4 and 6 hours during the IV infusion.

[3] = target: T1, human PTH1 receptor (human, UniProt Q03431 27-593); experiment: cell-based or functional assay
T1 sequence (looked up): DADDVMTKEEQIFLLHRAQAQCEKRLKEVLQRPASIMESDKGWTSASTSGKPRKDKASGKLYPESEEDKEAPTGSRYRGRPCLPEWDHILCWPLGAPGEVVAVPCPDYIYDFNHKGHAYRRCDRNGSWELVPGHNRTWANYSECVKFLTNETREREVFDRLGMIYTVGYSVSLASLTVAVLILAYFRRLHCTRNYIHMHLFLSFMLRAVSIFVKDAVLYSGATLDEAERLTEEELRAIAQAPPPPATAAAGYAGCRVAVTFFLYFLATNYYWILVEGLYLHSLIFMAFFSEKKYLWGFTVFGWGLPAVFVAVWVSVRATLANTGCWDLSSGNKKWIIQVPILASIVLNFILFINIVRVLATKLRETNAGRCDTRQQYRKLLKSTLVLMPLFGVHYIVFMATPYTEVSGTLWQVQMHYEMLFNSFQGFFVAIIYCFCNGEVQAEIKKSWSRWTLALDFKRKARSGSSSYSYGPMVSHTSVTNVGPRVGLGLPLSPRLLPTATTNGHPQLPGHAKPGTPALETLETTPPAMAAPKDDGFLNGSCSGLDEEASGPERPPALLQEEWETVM

calcium flux, EC80 [1]: 0.0041 µM
Molecule: TIP-39 (from UniProt Q96A98 62-100) (ligand)

IC50, SaOS-2 cAMP with PTH[1-84] or PTHrP[1-34] as ligand [3]: < 0.01 µM
B1: SP# 232 (peptide)
peptide: H-LL[S5]QRA[S5]WIQD[S5]RRR[S5]WLHHLIAEIHTA-NH2
modifications: staple 12-16, 3-7

IC50, SaOS-2 cAMP with PTH[1-84] or PTHrP[1-34] as ligand [3]: < 0.01 µM
B2: SP# 245 (peptide)
peptide: H-LLHQRA[S5]WIQ[S5]LRRREW[S5]RKK[S5]QDVHNF-NH2
modifications: staple 7-11, 18-22

IC50, SaOS-2 cAMP with PTH[1-84] or PTHrP[1-34] as ligand [3]: < 0.01 µM
B4: SP# 247 (peptide)
peptide: H-LLHQRAKWIQD[S5]RRR[S5]WLRKKLQDVHNF-NH2
modifications: staple 12-16

IC50, SaOS-2 cAMP with PTH[1-84] or PTHrP[1-34] as ligand [3]: < 0.01 µM
B5: SP# 246 (peptide)
peptide: H-LLHQRA[S5]WIQ[S5]LRRR[S5]WLR[S5]KLQDVHNF-NH2
modifications: staple 7-11, 16-20

Further lines, the molecule ahead of its results:

Molecule: BIM-44002 (peptide)
calcium flux IC50 [1]: > 10 µM

Molecule: PTH (1-34)
Ionized calcium, Avg. ([2]; 2 h): 4.13 mg/dL | Total calcium, Avg. ([2]; 2 h): 8.28 mg/dL | Ionized calcium, Avg. ([2]; 4 h): 4.62 mg/dL | Total calcium, Avg. ([2]; 4 h): 9.14 mg/dL | Ionized calcium, Avg. ([2]; 6 h): 4.99 mg/dL | Total calcium, Avg. ([2]; 6 h): 9.92 mg/dL | Ionized calcium, Avg. ([2]; time 0): 3.36 mg/dL | Total calcium, Avg. ([2]; time 0): 7.22 mg/dL | Ionized calcium, individual animals ([2]; animals 2001-2005, 2 h): 4.08 mg/dL and 3.27 mg/dL and 4.85 mg/dL and 4.68 mg/dL and 3.75 mg/dL | Total calcium, individual animals ([2]; animals 2001-2005, 2 h): 8.2 mg/dL and 6.6 mg/dL and 9.8 mg/dL and 9.3 mg/dL and 7.5 mg/dL | Ionized calcium, individual animals ([2]; animals 2001-2005, 4 h): 4.58 mg/dL and 3.88 mg/dL and 5.29 mg/dL and 5.02 mg/dL and 4.34 mg/dL | Total calcium, individual animals ([2]; animals 2001-2005, 4 h): 9.1 mg/dL and 7.6 mg/dL and 10.5 mg/dL and 9.8 mg/dL and 8.7 mg/dL | Ionized calcium, individual animals ([2]; animals 2001-2005, 6 h): 5.06 mg/dL and 4.15 mg/dL and 5.71 mg/dL and 5.23 mg/dL and 4.79 mg/dL | Total calcium, individual animals ([2]; animals 2001-2005, 6 h): 10.1 mg/dL (2×) and 8.3 mg/dL and 11.4 mg/dL and 9.7 mg/dL | Ionized calcium, individual animals ([2]; animals 2001-2005, time 0): 3.21 mg/dL and 3.07 mg/dL and 4.01 mg/dL and 3.16 mg/dL | Total calcium, individual animals ([2]; animals 2001-2005, time 0): 6.7 mg/dL and 6.4 mg/dL and 8.4 mg/dL and 8.3 mg/dL and 6.3 mg/dL | ionized calcium at 6 h ([2]; PTH infusion 1.25 μg/kg/h with vehicle for SP#63, 3.36 mg/dL at 0 h): 4.99 mg/dL | total calcium at 6 h ([2]; PTH infusion 1.25 μg/kg/h with vehicle for SP#63, 7.22 mg/dL at 0 h): 9.92 mg/dL

B3: SP# 226 (peptide)
peptide: H-LLH[S5]RAK[S5]IQDLRRRFW[S5]HHL[S5]AEIHTA-NH2
modifications: staple 18-22, 4-8
IC50, SaOS-2 cAMP with PTH[1-84] or PTHrP[1-34] as ligand [3]: < 0.01 µM

B6: SP# 228 (peptide)
peptide: H-LL[S5]QRA[S5]WIQDLRRRFW[S5]HHL[S5]AEIHTA-NH2
modifications: staple 18-22, 3-7
IC50, SaOS-2 cAMP with PTH[1-84] or PTHrP[1-34] as ligand [3]: < 0.01 µM

B7: SP# 67 (peptide)
peptide: H-LLHQ[hArg]AK[S5]IQD[S5]RRR[S5]WLH[S5]LIAEIHTAEY-NH2
modifications: staple 8-12, 16-20
calcium flux IC50 [1]: < 10 µM
